The text below walks through data of the supplement of paper PMC11061612.

Common to all, as to experiment: combination Emax (second highest fraction inhibited in the dose matrix, 72 h); higher = more inhibition; extreme values may be limits of the assay
For one test, the system named is A375 (Melanoma). Summed up: (§1)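 Bliss excess equals the observed combination effect minus the expected value EA + EB − EA·EB, where EA and EB are the effects of each agent alone. Combination Emax is the second-highest inhibition within the matrix. Inhibition was scaled from CellTiter-Glo 2.0 luminescence, with 0 set by vehicle wells and 1 by blank wells, after 72 hours of two-drug dosing of cells plated in 1536-well plates.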

Test [1] relates to ATN-1 (T-Lymphoblastic Leukemia). Summed up:
as §1

The subject of test [2] is BT-474 (Breast Carcinoma). The essentials: as §1
Test [3] deals with COR-L105 (Lung Adenocarcinoma). The essentials: as §1
The subject of test [4] is Daudi (Burkitt's Lymphoma). Summed up:
as §1

The test system of test [5] is GRANTA-519 (B-Cell Non-Hodgkin's Lymphoma). Summed up: as §1
Test [6] concerns HT-1197 (Bladder Carcinoma). Summed up: as §1
The subject of test [7] is IGROV-1 (Ovarian Carcinoma). The essentials: as §1
The test system of test [8] is JJN-3 (Plasma Cell Myeloma). The essentials:
as §1

Test [9] deals with JURL-MK1 (Chronic Myelogenous Leukemia). The essentials: as §1
A further test has as its system MG-63 (Osteosarcoma). Summed up:
as §1

Test [10] deals with NCI-H2009 (Lung Adenocarcinoma). Summed up:
as §1

Test [11] deals with NCI-H2170 (Squamous Cell Lung Carcinoma). The essentials: as §1
The test system of a further test is NCI-H2452 (Mesothelioma). The essentials: as §1
The subject of test [12] is OCI-M1 (Acute Myeloid Leukemia). The essentials:
as §1

For test [13], the system named is RPMI-8402 (T-Lymphoblastic Leukemia). The essentials: as §1
The test system of test [14] is RS4-11 (B-Lymphoblastic Leukemia). The essentials:
as §1

Test [15] deals with SBC-3 (Small Cell Lung Carcinoma). The essentials:
as §1

The subject of test [16] is SNU-1 (Gastric Carcinoma). The essentials: as §1
Test [17] relates to SUP-HD1 (Hodgkin's Lymphoma). The essentials:
as §1

SMILES strings stand for the structures.

As to `CC1(C)CCC(CN2CCN(c3ccc(C(=O)NS(=O)(=O)c4ccc(NCC5CCOCC5)c([N+](=O)[O-])c4)c(Oc4cnc5[nH]ccc5c4)c3)CC2)=C(c2ccc(Cl)cc2)C1` [Venetoclax] + CCN(CCO)CCCOc1ccc2c(Nc3cc(CC(=O)Nc4cccc(F)c4)[nH]n3)ncnc2c1 [AZD2811] (first compound max 1 µM, 7x7, partner max 1 µM), the “combination Emax” value in the test on A375 (Melanoma) came to 0.371; in [1], 0.866; in test [2] it was 0.218; in [3], 0.211; in test [4], 0.366; in test [5], 0.925. Also, the “combination Emax” value in [6] was determined as 0.221; in [7], 0.255; in test [8], 0.806; in test [9], 0.445; with MG-63 (Osteosarcoma) it was 0.23; in test [10] it was 0.236. The “combination Emax” value was found to be 0.545 in test [11]; 0.259 in the test with NCI-H2452 (Mesothelioma); 0.276 in test [12]; 0.735 in [13]; 1 in test [14]; 0.766 in test [15]. Besides, the “combination Emax” value in test [16] was 0.297; in test [17], 0.922.
For `CC1(C)CCC(CN2CCN(c3ccc(C(=O)NS(=O)(=O)c4ccc(NCC5CCOCC5)c([N+](=O)[O-])c4)c(Oc4cnc5[nH]ccc5c4)c3)CC2)=C(c2ccc(Cl)cc2)C1` [Venetoclax] + CN(C)CCCOc1ccc(-c2ccc3ncc4c(c3c2)n(C2CCOCC2)c(=O)n4C)cn1 [AZD0156] (first compound max 1 µM, 7x7, partner max 1 µM), the “combination Emax” value with A375 (Melanoma) turned out to be 0.216; in test [1], 0.402; in test [2], 0.175; in [3] it was 0.186; in test [4], 0.054; in test [5], 0.388. Moreover, the “combination Emax” value is 0.198 in test [6]; 0.535 in test [7]; 0.235 in test [8]; 0.262 in [9]; 0.217 in the test on MG-63 (Osteosarcoma); 0.273 in test [10]. The “combination Emax” value came to 0.243 in test [11]; 0.277 with NCI-H2452 (Mesothelioma); 0.19 in test [12]; 0.188 in [13]; 1 in [14]; 0.766 in test [15]. Also, the “combination Emax” value was 0.225 in [16] and 0.761 in test [17].
`CC1(C)CCC(CN2CCN(c3ccc(C(=O)NS(=O)(=O)c4ccc(NCC5CCOCC5)c([N+](=O)[O-])c4)c(Oc4cnc5[nH]ccc5c4)c3)CC2)=C(c2ccc(Cl)cc2)C1` [Venetoclax] + COc1cc(Nc2ncc3c(n2)-c2ccc(Cl)cc2C(c2c(F)cccc2OC)=NC3)ccc1C(=O)O [Alisertib] (first compound max 1 µM, 7x7, partner max 10 µM): the “combination Emax” value in the test on A375 (Melanoma) is 0.466; in test [1], 0.901; in test [2], 0.242; in test [3], 0.377; in [4], 0.787; in [5], 0.969. Also, the “combination Emax” value turned out to be 0.163 in test [6]; 0.789 in test [7]; 0.939 in test [8]; 0.964 in test [9]; 0.669 in the test on MG-63 (Osteosarcoma); 0.5 in test [10]. Further, the “combination Emax” value in test [11] turned out to be 0.666; with NCI-H2452 (Mesothelioma) it was 0.573; in test [12] it was 0.815; in test [13], 0.718; in test [14], 1; in [15] it was 0.942. The “combination Emax” value in [16] amounted to 0.327; in test [17], 0.906.
Turning to `CC1(C)CCC(CN2CCN(c3ccc(C(=O)NS(=O)(=O)c4ccc(NCC5CCOCC5)c([N+](=O)[O-])c4)c(Oc4cnc5[nH]ccc5c4)c3)CC2)=C(c2ccc(Cl)cc2)C1` [Venetoclax] + C[C@@H]1COCCN1C2=NC(=NC(=C2)C3(CC3)[S@](=N)(=O)C)C4=C5C=CNC5=NC=C4 [AZD6738] (first compound max 1 µM, 7x7, partner max 10 µM), the “combination Emax” value was 0.674 with A375 (Melanoma); 0.973 in test [1]; 0.206 in [2]; 0.421 in [3]; 0.725 in [4]; 0.99 in [5]. In addition, the “combination Emax” value in test [6] worked out at 0.441; in [7] it was 0.759; in [8], 0.791; in test [9], 1; with MG-63 (Osteosarcoma), 0.494; in test [10] it was 0.415. In addition, the “combination Emax” value was 0.691 in test [11]; 0.573 with NCI-H2452 (Mesothelioma); 1 in test [12]; 0.992 in [13]; 1 in test [14]; 0.926 in test [15]. Further, the figures for the “combination Emax” value in test [16] and in test [17] were 0.798 and 0.911, respectively.
Take `CC1(C)CCC(CN2CCN(c3ccc(C(=O)NS(=O)(=O)c4ccc(NCC5CCOCC5)c([N+](=O)[O-])c4)c(Oc4cnc5[nH]ccc5c4)c3)CC2)=C(c2ccc(Cl)cc2)C1` [Venetoclax] + C[C@@H](Nc1cc(F)cc(F)c1)c1cc(C(=O)N(C)C)cc2c(=O)cc(N3CCOCC3)oc12 [AZD8186] (first compound max 1 µM, 7x7, partner max 3 µM): the “combination Emax” value in the test with A375 (Melanoma) amounted to 0.109; in test [1] it was 0.616; in test [2], 0.163; in [3], 0.24; in [4] it was 0.271; in test [5], 0.437. Also, the “combination Emax” value in test [6] was 0.126; in test [7], 0.668; in [8], 0.232; in test [9], 0.095; in the test on MG-63 (Osteosarcoma), 0.143; in [10], 0.445. The “combination Emax” value worked out at 0.166 in [11]; 0.268 with NCI-H2452 (Mesothelioma); 0.0849 in test [12]; 0.431 in test [13]; 1 in test [14]; 0.507 in [15]. Moreover, the “combination Emax” value in test [16] is 0.154; in test [17] it was 0.839.
Turning to `CC1(C)CCC(CN2CCN(c3ccc(C(=O)NS(=O)(=O)c4ccc(NCC5CCOCC5)c([N+](=O)[O-])c4)c(Oc4cnc5[nH]ccc5c4)c3)CC2)=C(c2ccc(Cl)cc2)C1` [Venetoclax] + Cc1cc2ncnn2cc1Nc1ncc2c(n1)n(C1CCOCC1)c(=O)n2C [AZD7648] (first compound max 1 µM, 7x7, partner max 10 µM), the “combination Emax” value with A375 (Melanoma) amounted to 0.233; in [1], 0.47; in [2], 0.197; in test [3] it was 0.274; in test [4], 0.247; in [5] it was 0.332. For the same compound, the “combination Emax” value in test [6] was determined as 0.214; in test [7] it was 0.539; in [8] it was 0.327; in [9] it was 0.356; in the test with MG-63 (Osteosarcoma), 0.201; in [10], 0.12. Besides, the “combination Emax” value in test [11] amounted to 0.282; in the test with NCI-H2452 (Mesothelioma) it was 0.259; in test [12] it was 0.234; in test [13], 0.287; in [14] it was 1; in [15], 0.543. The figures for the “combination Emax” value in test [16] and in test [17] were 0.288 and 0.795, respectively.
Turning to `CC1(C)CCC(CN2CCN(c3ccc(C(=O)NS(=O)(=O)c4ccc(NCC5CCOCC5)c([N+](=O)[O-])c4)c(Oc4cnc5[nH]ccc5c4)c3)CC2)=C(c2ccc(Cl)cc2)C1` [Venetoclax] + Cn1cnc2c(F)c(Nc3ccc(Br)cc3Cl)c(C(=O)NOCCO)cc21 [Selumetinib] (first compound max 1 µM, 7x7, partner max 3 µM), the “combination Emax” value in the test on A375 (Melanoma) is 0.686; in test [1] it was 0.137; in [2], 0.0915; in [3] it was 0.362; in test [4], 0.115; in [5], 0.323. The “combination Emax” value in test [6] is 0.254; in [7], 0.595; in test [8], 0.462; in [9], 0.876; in the test with MG-63 (Osteosarcoma), 0.148; in test [10] it was 0.184. Further, the “combination Emax” value amounted to 0.107 in test [11]; 0.181 in the test on NCI-H2452 (Mesothelioma); 0.483 in test [12]; 0.084 in test [13]; 1 in [14]; 0.605 in test [15]. Moreover, the “combination Emax” value worked out at 0.221 in test [16] and 0.809 in [17].
